Experimental data reported in PubChem BioAssay (NCI).
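Following 48 hours of exposure in 96-well plates, responses at five concentrations were used to interpolate endpoints linearly. The concentration for 50% growth inhibition is given as GI50. TGI denotes the concentration required for complete inhibition of growth.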

Tests used:
Assay in all cases: DTP human tumour cell line panel, 48 h
SK-OV-3 ovarian = system: SK-OV-3 ovarian
SF-295 CNS = system: SF-295 CNS
SK-MEL-5 melanoma = system: SK-MEL-5 melanoma
786-0 renal = system: 786-0 renal
MDA-MB-435 = system: MDA-MB-435
MDA-MB-231 breast = system: MDA-MB-231 breast
MCF7 breast = system: MCF7 breast
MALME-3M melanoma = system: MALME-3M melanoma
SNB-19 CNS = system: SNB-19 CNS
OVCAR-3 ovarian = system: OVCAR-3 ovarian
DU-145 prostate = system: DU-145 prostate

Row | SMILES | TGI (SK-OV-3 ovarian) [µM] | TGI (SF-295 CNS) [µM] | TGI (SK-MEL-5 melanoma) [µM] | TGI (786-0 renal) [µM] | TGI (MDA-MB-435) [µM] | TGI (MDA-MB-231 breast) [µM] | TGI (MCF7 breast) [µM] | TGI (MALME-3M melanoma) [µM] | TGI (SNB-19 CNS) [µM] | TGI (OVCAR-3 ovarian) [µM] | TGI (DU-145 prostate) [µM] | GI50 (SK-OV-3 ovarian) [µM] | GI50 (SF-295 CNS) [µM] | GI50 (SK-MEL-5 melanoma) [µM] | GI50 (MDA-MB-435) [µM] | GI50 (MCF7 breast) [µM] | GI50 (MALME-3M melanoma) [µM] | GI50 (SNB-19 CNS) [µM] | GI50 (DU-145 prostate) [µM]
1 | C#CC1(O)CCC2[C@@H]3CCc4cc(Oc5nc(F)nc(-c6c(C)c(C(=O)OCC)n7ccccc67)n5)ccc4C3CC[C@@]21C (stereo partly drawn) | > 100 | > 100 | > 100 | > 100 | > 100 | > 100 | > 100 | > 100 | > 100 | > 100 | > 100 |  |  |  |  |  |  |  | 
2 | CC(C)(C)OC(=O)NCC(CNC(=O)OC(C)(C)C)C(N)=O | > 100 | > 100 | > 100 | > 100 | > 100 | > 100 | > 100 | > 100 | > 100 | > 100 | > 100 |  |  |  |  |  |  |  | 
3 | COc1ccc(/C=N\N(C)Cc2cccc3ccsc23)cc1 | > 100 | > 100 | > 100 | > 100 | > 100 | > 100 | > 100 | > 100 | > 100 | > 100 | > 100 |  |  |  |  |  |  |  | 
4 | Cc1nc(-c2ccccc2)cn2c1nc1ccccc12 | 26 | > 65.8 | 28.6 | 50.9 | 36.9 | > 100 | 23.4 | 48.9 | > 76.2 | 69.9 | > 100 |  |  |  |  |  |  |  | 
5 | Cn1c(-c2ccc(C=O)o2)ccc1-c1ccc(C=O)o1 | > 100 | > 100 | > 100 | > 100 | > 100 | > 100 | > 100 | > 100 | > 100 | 81.2 | > 100 |  |  |  |  |  |  |  | 
6 | NC1=Nc2ccccc2Sc2nncn21 | > 100 | > 100 | > 100 | > 100 | > 100 | > 100 | > 100 | > 100 | > 100 | > 100 | > 100 |  |  |  |  |  |  |  | 
7 | CCOC(=O)C(NC(=O)c1cccc(Cl)c1)(Nc1ccc(S(=O)(=O)Nc2cc(C)on2)cc1)C(F)(F)F (stereo not drawn) | > 100 | 33.4 | > 100 | > 100 | > 100 | > 100 | > 100 | > 100 | > 100 | > 100 | > 100 |  |  |  |  |  |  |  | 
8 | CC1OC(OC2C(O)COC(OC3C(C)OC(OC4C(OC(=O)[C@]56CCC(C)(C)C[C@@H]5C5=CCC7[C@@]8(C)C[C@H](O)[C@H](OC9OC(CO)C(O)C(O)C9O)[C@@](C)(CO)[C@@H]8CC[C@@]7(C)[C@]5(C)CC6)OCC(O)C4O)C(O)C3O)C2O)C(O)C(O)C1O (stereo partly drawn) | 37.8 | 48 | 39.8 | 38 | 57.7 | 40.2 | > 100 | 64.3 | 38.7 | 40.6 | 37.5 |  |  |  |  |  |  |  | 
9 | Nc1ncnc2c1ncn2[C@H]1C=C[C@@H](NO)C1 | > 100 | > 100 | > 100 | > 100 | > 100 | > 100 | > 100 | > 100 | > 100 | > 100 | > 100 |  |  |  |  |  |  |  | 
10 | CC1C(C)(C)C23CC12C1(OCCO1)C3Br (stereo not drawn) | > 100 | > 100 | > 100 | > 100 | > 100 | > 100 | > 100 | > 100 | > 100 | > 100 | > 100 |  |  |  |  |  |  |  | 
11 | C#C[C@]1(O)CC[C@H]2[C@@H]3CCC4=C/C(=N\OCCN5CCCCC5)CC[C@]4(C)[C@H]3CC[C@@]21C | 31.2 | 10.6 | 6.19 | 14.9 | 8.91 | 29 | 15.6 | 21.6 | 19.1 | 16.4 | 23.1 |  |  |  |  |  |  |  | 
12 | O=C(O)c1nc2cc(Cl)ccc2[nH]c1=O | > 100 | > 100 | > 100 | > 100 | > 100 | > 100 | > 100 | > 100 | > 100 | > 100 | > 100 |  |  |  |  |  |  |  | 
13 | CO/C=C(/C(=O)OC)[C@@H]1C[C@@H]1c1ccc2ccccc2c1 | 59.4 | > 100 | 30.3 | > 100 | 35.1 | > 100 | > 100 | 50.6 | > 100 | 73.9 | > 100 |  |  |  |  |  |  |  | 
14 | CN(C)Cc1cc(Cl)c(O)c(CN(C)C)c1 | > 100 | > 100 | > 100 | > 100 | > 100 | > 100 | > 100 | > 100 | > 100 | > 100 | > 100 |  |  |  |  |  |  |  | 
15 | CC(NC1=NCCO1)c1ccccc1Cl (stereo not drawn) | > 100 | > 100 | > 100 | > 100 | > 100 | > 100 | > 100 | > 100 | > 100 | > 100 | > 100 |  |  |  |  |  |  |  | 
16 | Nn1c(CCCCCCCCc2nnc(-c3c(O)ccc4ccccc34)n2N)nnc1-c1c(O)ccc2ccccc12 | > 100 | > 100 | > 100 | > 100 | > 100 | > 100 | > 100 | > 100 | > 100 | > 100 | > 100 |  |  |  |  |  |  |  | 
17 | Cc1ncn(-c2ccccc2O)c1C | > 100 | > 100 | > 100 | > 100 | > 100 | > 100 | > 100 | > 100 | > 100 | > 100 | > 100 |  |  |  |  |  |  |  | 
18 | S=C(NCc1ccccc1)Nc1sc(=NCc2ccccc2)nc2sc3c(c12)CCN(N1CCc2c(sc4nc(=NCc5ccccc5)sc(NC(=S)NCc5ccccc5)c24)C1)C3 | 99.6 | > 100 | > 100 | > 40.9 | > 100 | > 44 | > 62.2 | > 100 | > 64.2 | > 100 | > 90.8 |  |  |  |  |  |  |  | 
19 | OC1NC2Nc3ccccc3NC2NC1O (stereo not drawn) | > 100 | > 100 | > 100 | > 100 | > 100 | > 100 | > 100 | > 100 | > 100 | > 100 | > 100 |  |  |  |  |  |  |  | 
20 | FC1(F)ON2CCc3ccccc3C2[C@H]1c1ccccc1 (stereo partly drawn) | > 100 | > 100 | > 100 | 96.7 | > 100 | > 100 | > 100 | 88.8 | > 100 | > 100 | > 100 | > 100 | > 100 | > 100 | > 100 | > 100 | 14.5 | > 100 | > 100
